# Several values for one entry are separate records, joined by “and”; a condition that tells them apart may be missing. Identical values can stand only once.
# How the values were obtained:
# [1] = target: T1, synthetic thick filaments formed from purified full-length bovine β-cardiac myosin (Bos taurus, UniProt Q9BE39); experiment: mant-ATP chase single nucleotide turnover, synthetic thick filaments; format: biochemical; settings: for Representative Traces (mant-ATP chase, fluorescence signal over time): Figure 3b
# T1 construct: diluting full-length bovine cardiac myosin stock into assay buffer; from tissue; host or cells: bovine cardiac muscle (the text says isolated/purified and describes no preparation)
# Source text: We used systems of increasing complexity ranging from the isolated cardiac myosin motor domains (Fig. 3a) to synthetic thick filaments formed from purified full-length bovine cardiac myosin (Fig. 3b) and bovine cardiac myofibrils as substrates in the chase assays (Fig. 3c). In contrast to the isolated myosin motors, synthetic thick filaments contain two myosin head domains per molecule connected via their coiled-coil tail.
# Synthetic thick filaments were freshly prepared by diluting full-length bovine cardiac myosin stock into assay buffer (composition in mmol L^−1: 15 PIPES pH 7, 5 MgCl2, 1 DTT) and incubation on ice for 2 h. Bovine myosin S1 and synthetic thick filament concentrations were adjusted to 0.4 μmol L^−1 with assay buffer and 40 μL aliquoted into individual wells of a black 384-well plate (Greiner). Mant-ATP (JenaBioscience) was added to each well to a final concentration of 0.4 μmol L^−1 using an automated injector unit in a ClarioStar Plate Reader (BMG LabTech) and the system was allowed to age for 1 min. The chase phase was started by adding a final concentration of 2 mmol L^−1 ATP using a second automated injector unit. Fluorescence intensity from each well was constantly measured for 15 min every 1 sec at 25 °C with the following settings: excitation at 360 nm with a 20 nm bandwidth and emission at 450 nm with a 20 nm bandwidth. For experiments with cardiac myofibrils the concentration was adjusted to 1 mg m L^−1, and the mant-ATP and ATP concentrations were increased to 20 μmol L^−1 and 20 mmol L^−1, respectively.
# [2] = target: bovine cardiac myosin S1 (Bos taurus, UniProt Q9BE39); experiment: mant-ATP chase single nucleotide turnover, myosin S1; settings: for Representative Traces (mant-ATP chase, normalised signal): representative trace, sheet Figure 3a;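 on all read-outs here: 0.4 µM S1 preloaded with equimolar mant-ATP, chased by 2 mM ATP, mant fluorescence (ex 360, em 450 nm) read each second over 15 min at 25 °C, biexponential fit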
# Source text: Chase of mant-ATP loaded cardiac myosin S1 with ATP leads to a decrease in the mant fluorescence intensity which is best described by a bi-exponential decay function with an initial fast phase followed by a second slower phase, corresponding to the so-called disordered (DRX) and super-relaxed state (SRX) of myosin, respectively.
# [3] = Synthetic Myosin Filaments, individual replicates
# [4] = Beta-cardiac myosin S1, individual replicates
# T1 sequence (Q9BE39 whole entry): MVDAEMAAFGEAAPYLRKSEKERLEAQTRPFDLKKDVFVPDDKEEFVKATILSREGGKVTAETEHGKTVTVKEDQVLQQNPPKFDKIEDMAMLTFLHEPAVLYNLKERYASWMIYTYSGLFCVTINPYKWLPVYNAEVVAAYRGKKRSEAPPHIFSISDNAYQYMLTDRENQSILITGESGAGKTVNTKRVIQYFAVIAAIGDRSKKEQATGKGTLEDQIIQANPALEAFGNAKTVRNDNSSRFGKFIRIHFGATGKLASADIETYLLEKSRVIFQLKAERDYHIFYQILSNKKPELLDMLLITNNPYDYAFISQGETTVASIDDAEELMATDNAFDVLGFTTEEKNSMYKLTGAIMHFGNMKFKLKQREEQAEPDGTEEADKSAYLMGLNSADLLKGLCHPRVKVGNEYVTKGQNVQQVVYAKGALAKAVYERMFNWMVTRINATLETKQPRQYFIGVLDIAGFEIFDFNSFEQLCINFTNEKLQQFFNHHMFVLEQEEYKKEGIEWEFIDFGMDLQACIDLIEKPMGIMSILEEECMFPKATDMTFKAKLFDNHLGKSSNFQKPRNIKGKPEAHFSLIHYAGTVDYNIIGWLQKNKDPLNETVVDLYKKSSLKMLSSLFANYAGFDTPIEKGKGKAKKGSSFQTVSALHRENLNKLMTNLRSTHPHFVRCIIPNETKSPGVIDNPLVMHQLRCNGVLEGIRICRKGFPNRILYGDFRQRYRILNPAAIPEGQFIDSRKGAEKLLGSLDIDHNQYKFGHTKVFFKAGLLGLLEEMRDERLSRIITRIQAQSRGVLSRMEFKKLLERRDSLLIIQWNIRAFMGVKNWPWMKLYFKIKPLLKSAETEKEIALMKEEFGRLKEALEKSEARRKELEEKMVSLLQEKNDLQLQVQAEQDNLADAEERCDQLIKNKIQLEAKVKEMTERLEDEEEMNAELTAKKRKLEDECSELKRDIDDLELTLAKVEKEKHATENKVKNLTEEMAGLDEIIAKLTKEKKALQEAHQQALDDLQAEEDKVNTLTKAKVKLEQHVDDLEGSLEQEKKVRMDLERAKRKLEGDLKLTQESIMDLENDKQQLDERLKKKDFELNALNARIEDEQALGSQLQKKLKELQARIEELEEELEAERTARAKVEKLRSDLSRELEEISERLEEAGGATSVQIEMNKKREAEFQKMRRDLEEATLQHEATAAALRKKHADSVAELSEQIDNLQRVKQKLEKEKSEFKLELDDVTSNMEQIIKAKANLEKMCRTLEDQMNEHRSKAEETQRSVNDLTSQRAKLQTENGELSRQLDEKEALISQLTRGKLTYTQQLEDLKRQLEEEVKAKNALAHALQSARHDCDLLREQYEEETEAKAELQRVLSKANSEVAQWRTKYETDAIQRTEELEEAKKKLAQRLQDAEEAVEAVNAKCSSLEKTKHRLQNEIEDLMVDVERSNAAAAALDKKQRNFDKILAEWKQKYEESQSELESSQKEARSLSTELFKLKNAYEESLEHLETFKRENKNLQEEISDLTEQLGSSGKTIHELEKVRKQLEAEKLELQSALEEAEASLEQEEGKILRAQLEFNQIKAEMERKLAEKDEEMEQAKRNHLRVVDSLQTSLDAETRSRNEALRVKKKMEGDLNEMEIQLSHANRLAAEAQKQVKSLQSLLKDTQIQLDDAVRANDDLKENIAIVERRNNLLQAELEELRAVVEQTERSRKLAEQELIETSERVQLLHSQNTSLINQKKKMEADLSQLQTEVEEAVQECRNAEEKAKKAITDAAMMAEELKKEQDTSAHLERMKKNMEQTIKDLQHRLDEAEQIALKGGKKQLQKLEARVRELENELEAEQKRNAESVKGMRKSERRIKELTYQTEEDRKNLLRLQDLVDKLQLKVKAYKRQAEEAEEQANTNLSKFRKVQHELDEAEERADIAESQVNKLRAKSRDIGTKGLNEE
# T1 sequence (P85100 whole entry partner): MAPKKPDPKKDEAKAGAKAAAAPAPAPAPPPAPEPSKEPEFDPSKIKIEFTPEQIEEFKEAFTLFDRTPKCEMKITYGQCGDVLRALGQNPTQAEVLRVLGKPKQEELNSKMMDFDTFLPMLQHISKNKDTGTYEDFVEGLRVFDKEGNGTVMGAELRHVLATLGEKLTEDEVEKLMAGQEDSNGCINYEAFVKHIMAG
# T1 sequence (Q3SZE5 whole entry partner): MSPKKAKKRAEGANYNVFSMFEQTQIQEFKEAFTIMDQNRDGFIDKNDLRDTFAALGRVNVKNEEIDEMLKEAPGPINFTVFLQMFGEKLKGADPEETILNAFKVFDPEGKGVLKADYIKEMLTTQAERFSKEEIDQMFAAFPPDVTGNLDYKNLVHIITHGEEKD
# bovine cardiac myosin S1, sequence (Q9BE39 85-778 limits assumed): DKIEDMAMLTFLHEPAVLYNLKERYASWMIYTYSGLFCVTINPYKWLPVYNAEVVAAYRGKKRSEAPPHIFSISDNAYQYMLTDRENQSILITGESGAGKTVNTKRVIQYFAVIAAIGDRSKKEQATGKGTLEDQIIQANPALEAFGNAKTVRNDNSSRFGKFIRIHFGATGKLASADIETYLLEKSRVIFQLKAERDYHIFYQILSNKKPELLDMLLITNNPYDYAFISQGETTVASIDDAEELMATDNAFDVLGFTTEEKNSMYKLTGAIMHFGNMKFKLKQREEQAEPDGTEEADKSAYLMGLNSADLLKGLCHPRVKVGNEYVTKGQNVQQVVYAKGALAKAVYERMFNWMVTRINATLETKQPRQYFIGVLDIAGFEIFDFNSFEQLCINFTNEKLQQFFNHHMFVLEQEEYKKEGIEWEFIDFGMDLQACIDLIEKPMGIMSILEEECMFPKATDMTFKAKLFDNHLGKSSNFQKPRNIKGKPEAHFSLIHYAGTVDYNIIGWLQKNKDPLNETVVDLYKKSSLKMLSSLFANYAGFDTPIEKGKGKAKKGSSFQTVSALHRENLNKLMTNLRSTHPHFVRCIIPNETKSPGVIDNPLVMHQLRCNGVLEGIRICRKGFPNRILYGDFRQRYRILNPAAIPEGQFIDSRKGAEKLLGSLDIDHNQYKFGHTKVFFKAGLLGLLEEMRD
# bovine cardiac myosin S1, sequence (P85100 whole entry partner): as the sequence (P85100 whole entry partner) above
structure (smiles),measurement,setting,value
CC(C)n1c(=O)cc(N[C@@H](C)c2ccccc2)[nH]c1=O [Mavacamten],effect on the rate of the fast DRX phase,[1],no effect
same,"Bar graph (Figure 3b, mant-ATP chase)","[1]; Figure 3b source data, individual replicate values",77.58 and 71.76 and 78.3 and 63.78 and 62.87 and 75.77 and 68.24
same,"Representative Traces (mant-ATP chase, fluorescence signal over time)",[1]; t = 796 s,0.1167
same,"Representative Traces (mant-ATP chase, fluorescence signal over time)",[1]; t = 797 s,0.08985
same,"Representative Traces (mant-ATP chase, fluorescence signal over time)",[1]; t = 798 s,0.08985
same,kfast,[1]; [3],0.1528 s⁻¹ and 0.02969 s⁻¹ and 0.09681 s⁻¹ and 0.02631 s⁻¹ and 0.06313 s⁻¹ and 0.02802 s⁻¹
same,kslow,[1]; [3],0.001307 s⁻¹ and 0.001384 s⁻¹ and 0.002093 s⁻¹ and 0.003633 s⁻¹ and 0.005541 s⁻¹ and 0.004994 s⁻¹
same,slow phase,[1]; [3],71.76% and 78.3% and 63.78% and 62.87% and 75.77% and 68.24%
same,kslow,[1]; control 0.0046 ± 0.0007,0.0033 ± 0.0007 s⁻¹
same,kfast,[1]; control […],0.0593 ± 0.0188 s⁻¹
same,effect on the rate of the fast DRX phase,[2],no effect
same,kslow,"[2]; 2 μmol L^-1 Mavacamten or 20 μmol L^-1 F10, control 0.0058 ± 0.0010",0.0035 ± 0.0002 s⁻¹
same,kfast,[2]; [4],0.009858 s⁻¹ and 0.01039 s⁻¹ and 0.07197 s⁻¹ and 0.03575 s⁻¹ and 0.01101 s⁻¹ and 0.01169 s⁻¹
same,kslow,[2]; [4],0.00364 s⁻¹ and 0.002861 s⁻¹ and 0.004023 s⁻¹ and 0.004095 s⁻¹ and 0.003004 s⁻¹ and 0.003638 s⁻¹
same,slow phase,[2]; [4],82.01% and 63.89% and 87.3% and 56.77% and 56.99% and 79.26%
same,"Representative Traces, normalised fluorescence",[2]; t 396 s,0.2925
same,"Representative Traces, normalised fluorescence",[2]; t 397 s,0.3426
same,"Representative Traces, normalised fluorescence",[2]; t 398 s,0.3062
same,"Representative Traces, normalised fluorescence",[2]; t 399 s,0.3254
same,"Representative Traces, normalised fluorescence",[2]; t 400 s,0.3408
same,"Representative Traces, normalised fluorescence",[2]; t 401 s,0.3177
same,"Representative Traces, normalised fluorescence",[2]; t 402 s,0.2999
same,"Representative Traces, normalised fluorescence",[2]; t 403 s,0.3192
same,"Representative Traces, normalised fluorescence",[2]; t 404 s,0.3277
same,"Representative Traces, normalised fluorescence",[2]; t 405 s,0.3461
same,"Representative Traces, normalised fluorescence",[2]; t 406 s,0.3076
same,"Representative Traces, normalised fluorescence",[2]; t 407 s,0.3064
same,"Representative Traces, normalised fluorescence",[2]; t 408 s,0.3235
same,"Representative Traces, normalised fluorescence",[2]; t 409 s,0.3324
same,"Representative Traces, normalised fluorescence",[2]; t 411 s,0.3126
same,"Representative Traces, normalised fluorescence",[2]; t 412 s,0.2865
same,"Representative Traces, normalised fluorescence",[2]; t 413 s,0.2993
same,"Representative Traces, normalised fluorescence",[2]; t 414 s,0.3256
same,"Representative Traces, normalised fluorescence",[2]; t 415 s,0.2791
same,"Representative Traces, normalised fluorescence",[2]; t 416 s,0.3071
same,"Representative Traces, normalised fluorescence",[2]; t 417 s,0.3285
same,"Representative Traces, normalised fluorescence",[2]; t 418 s,0.3567
same,"Representative Traces, normalised fluorescence",[2]; t 419 s,0.2951
same,"Representative Traces, normalised fluorescence",[2]; t 420 s,0.2958
same,"Representative Traces, normalised fluorescence",[2]; t 421 s,0.2771
same,"Representative Traces, normalised fluorescence",[2]; t 422 s,0.3283
same,"Representative Traces, normalised fluorescence",[2]; t 423 s,0.3329
same,"Representative Traces, normalised fluorescence",[2]; t 424 s,0.3402
same,"Representative Traces, normalised fluorescence",[2]; t 425 s,0.3675
same,"Representative Traces, normalised fluorescence",[2]; t 426 s,0.3241
same,"Representative Traces, normalised fluorescence",[2]; t 427 s,0.3018
same,"Representative Traces, normalised fluorescence",[2]; t 429 s,0.3105
same,"Representative Traces, normalised fluorescence",[2]; t 430 s,0.2835
same,"Representative Traces, normalised fluorescence",[2]; t 431 s,0.3652
same,"Representative Traces, normalised fluorescence",[2]; t 432 s,0.276
same,"Representative Traces, normalised fluorescence",[2]; t 433 s,0.3282
same,"Representative Traces, normalised fluorescence",[2]; t 434 s,0.3046
same,"Representative Traces, normalised fluorescence",[2]; t 436 s,0.327
same,"Representative Traces, normalised fluorescence",[2]; t 438 s,0.2936
same,"Representative Traces, normalised fluorescence",[2]; t 439 s,0.2402
same,"Representative Traces, normalised fluorescence",[2]; t 440 s,0.312
same,"Representative Traces, normalised fluorescence",[2]; t 442 s,0.3011
same,"Representative Traces, normalised fluorescence",[2]; t 443 s,0.3298
same,"Representative Traces, normalised fluorescence",[2]; t 444 s,0.251
same,"Representative Traces, normalised fluorescence",[2]; t 445 s,0.2991
same,"Representative Traces, normalised fluorescence",[2]; t 448 s,0.3473
same,"Representative Traces, normalised fluorescence",[2]; t 449 s,0.3057
same,"Representative Traces, normalised fluorescence",[2]; t 450 s,0.2886
same,"Representative Traces, normalised fluorescence",[2]; t 451 s,0.2859
same,"Representative Traces, normalised fluorescence",[2]; t 452 s,0.29
same,"Representative Traces, normalised fluorescence",[2]; t 453 s,0.2756
same,"Representative Traces, normalised fluorescence",[2]; t 454 s,0.2575
same,"Representative Traces, normalised fluorescence",[2]; t 455 s,0.3029
same,"Representative Traces, normalised fluorescence",[2]; t 457 s,0.3415
same,"Representative Traces, normalised fluorescence",[2]; t 458 s,0.2853
same,"Representative Traces, normalised fluorescence",[2]; t 459 s,0.3237
same,"Representative Traces, normalised fluorescence",[2]; t 460 s,0.3029
same,"Representative Traces, normalised fluorescence",[2]; t 461 s,0.3217
same,"Representative Traces, normalised fluorescence",[2]; t 462 s,0.3036
same,"Representative Traces, normalised fluorescence",[2]; t 463 s,0.347
same,"Representative Traces, normalised fluorescence",[2]; t 464 s,0.2897
same,"Representative Traces, normalised fluorescence",[2]; t 465 s,0.2531
same,"Representative Traces, normalised fluorescence",[2]; t 466 s,0.2878
same,"Representative Traces, normalised fluorescence",[2]; t 467 s,0.2939
same,"Representative Traces, normalised fluorescence",[2]; t 468 s,0.2524
same,"Representative Traces, normalised fluorescence",[2]; t 469 s,0.272
same,"Representative Traces, normalised fluorescence",[2]; t 470 s,0.2865
same,"Representative Traces, normalised fluorescence",[2]; t 471 s,0.2593
same,"Representative Traces, normalised fluorescence",[2]; t 472 s,0.2417
same,"Representative Traces, normalised fluorescence",[2]; t 473 s,0.3026
same,"Representative Traces, normalised fluorescence",[2]; t 474 s,0.305
same,"Representative Traces, normalised fluorescence",[2]; t 475 s,0.2893
same,"Representative Traces, normalised fluorescence",[2]; t 476 s,0.2207
same,"Representative Traces, normalised fluorescence",[2]; t 477 s,0.2579
same,"Representative Traces, normalised fluorescence",[2]; t 479 s,0.2507
same,"Representative Traces, normalised fluorescence",[2]; t 481 s,0.3039
same,"Representative Traces, normalised fluorescence",[2]; t 482 s,0.2976
same,"Representative Traces, normalised fluorescence",[2]; t 483 s,0.3557
same,"Representative Traces, normalised fluorescence",[2]; t 484 s,0.2911
same,"Representative Traces, normalised fluorescence",[2]; t 485 s,0.3282
same,"Representative Traces, normalised fluorescence",[2]; t 486 s,0.3063
same,"Representative Traces, normalised fluorescence",[2]; t 487 s,0.301
same,"Representative Traces, normalised fluorescence",[2]; t 489 s,0.3448
same,"Representative Traces, normalised fluorescence",[2]; t 490 s,0.2903
same,"Representative Traces, normalised fluorescence",[2]; t 491 s,0.2724
same,"Representative Traces, normalised fluorescence",[2]; t 492 s,0.2681
same,"Representative Traces, normalised fluorescence",[2]; t 493 s,0.2418
same,"Representative Traces, normalised fluorescence",[2]; t 494 s,0.2422
same,"Representative Traces, normalised fluorescence",[2]; t 495 s,0.2809
same,"Representative Traces, normalised fluorescence",[2]; t 496 s,0.2322
same,"Representative Traces, normalised fluorescence",[2]; t 498 s,0.212
same,"Representative Traces, normalised fluorescence",[2]; t 499 s,0.2038
same,"Representative Traces, normalised fluorescence",[2]; t 500 s,0.275
same,"Representative Traces, normalised fluorescence",[2]; t 501 s,0.2793
same,"Representative Traces, normalised fluorescence",[2]; t 502 s,0.2398
same,"Representative Traces, normalised fluorescence",[2]; t 503 s,0.2758
same,"Representative Traces, normalised fluorescence",[2]; t 504 s,0.2833
same,"Representative Traces, normalised fluorescence",[2]; t 505 s,0.2324
same,"Representative Traces, normalised fluorescence",[2]; t 506 s,0.2749
same,"Representative Traces, normalised fluorescence",[2]; t 507 s,0.3022
same,"Representative Traces (mant-ATP chase, normalised signal)",[2]; t = 796 s,0.1415
same,"Representative Traces (mant-ATP chase, normalised signal)",[2]; t = 797 s,0.08266

# From publication PMC10673995, “Discovery of a novel cardiac-specific myosin modulator using artificial intelligence-based virtual screening” (Nature Communications, 2023)
